From ChEMBL document CHEMBL1131364, “Novel modified tripeptide inhibitors of alpha 4 beta 7 mediated lymphoid cell adhesion to MAdCAM-1” (Bioorg Med Chem Lett, 1998)
Numbered stars: 1 amine (or outer) side, 2 acyl side, 3 side chain; on linkers, the order of the positions; unused ones are H or OH. Peptide text beside a SMILES is read from it. * marks the point of attachment. CO = O=C([*:1])[*:2]; NHPh = c1ccc(N*)cc1

Experiment: In vitro inhibition of RPMI 8866 cell adhesion to human MAdCAM-1 IgG chimera.
Format: cell-based

| SMILES | IC50 [µM] |
| --- | --- |
| CC(C)C[C@H](NC(=O)c1cc2ccccc2o1)C(=O)N[C@@H](CC(=O)O)C(=O)N[C@H](C(=O)NCc1ccc(F)c(F)c1)[C@@H](C)O | 5.2 |
| COc1ccc(CCNC(=O)[C@@H](NC(=O)[C@H](CC(=O)O)NC(=O)[C@H](CC(C)C)NC(=O)c2cc3ccccc3cn2)[C@@H](C)O)cc1 | > 25 |
| COc1ccc(CNC(=O)[C@@H](NC(=O)[C@H](CC(=O)O)NC(=O)[C@H](CC(C)C)NC(=O)c2cc3ccccc3cn2)[C@@H](C)O)cc1 | 3 |
| CC(C)C[C@H](NC(=O)c1cc2ccccc2cn1)C(=O)N[C@@H](CC(=O)O)C(=O)N[C@H](C(=O)NCc1ccc(F)cc1)[C@@H](C)O | 5.2 |
| CC(C)C[C@H](NC(=O)c1coc2ccccc2c1=O)C(=O)N[C@@H](CC(=O)O)C(=O)NC(C(N)=O)C(O)c1ccccc1 (some centres undefined) | 6.4 |
| CC(C)C[C@H](NC(=O)c1cc2ccccc2cn1)C(=O)N[C@@H](CC(=O)O)C(=O)N[C@@H](C(N)=O)[C@@H](C)O | 3.9 |
| CC(C)C[C@H](NC(=O)c1coc2ccccc2c1=O)C(=O)N[C@@H](CC(=O)O)C(=O)N[C@H](C(N)=O)[C@@H](C)O | 1.3 |
| CC(C)C[C@H](NC(=O)c1ccc([N+](=O)[O-])cc1)C(=O)N[C@@H](CC(=O)O)C(=O)N[C@H](C(N)=O)[C@@H](C)O | 9 |
| CC(C)C[C@H](NC(=O)c1cc2ccccc2o1)C(=O)N[C@@H](CC(=O)O)C(=O)N[C@H](C(=O)NCc1ccc2c(c1)OCO2)[C@@H](C)O | 4.4 |
| COc1ccc(C(=O)N[C@@H](CC(C)C)C(=O)N[C@@H](CC(=O)O)C(=O)N[C@H](C(N)=O)[C@@H](C)O)cc1 | > 25 |
| CC(C)C[C@H](NC(=O)c1cc2ccccc2cn1)C(=O)N[C@@H](CC(=O)O)C(=O)N[C@H](C(N)=O)[C@@H](C)O | 3.1 |
| CC(C)C[C@H](NS(=O)(=O)c1ccccc1)C(=O)N[C@@H](CC(=O)O)C(=O)N[C@H](C(N)=O)[C@@H](C)O | > 25 |
| CC(C)C[C@H](NC(=O)c1cc2ccccc2o1)C(=O)N[C@@H](CC(=O)O)C(=O)N[C@H](C(N)=O)[C@@H](C)O | 2.3 |
| CC(C)C[C@H](NC(=O)c1cc2ccccc2cn1)C(=O)N[C@@H](CC(=O)O)C(=O)N[C@H](C(=O)NCc1ccncc1)[C@@H](C)O | 1.1 |
| CC(C)C[C@H](NC(=O)/C=C/c1ccccc1)C(=O)N[C@@H](CC(=O)O)C(=O)N[C@H](C(N)=O)[C@@H](C)O | 4.9 |
| CC(C)C[C@H](NC(=O)c1coc2ccccc2c1=O)C(=O)N[C@@H](CC(=O)O)C(=O)N[C@H](C(N)=O)[C@H](C)O | 4.7 |
| CC(=O)N[C@@H](CC(C)C)C(=O)N[C@@H](CC(=O)O)C(=O)N[C@H](C(N)=O)[C@@H](C)O (Ac-Leu-Asp-Thr-NH2) | 250 |
| CC(C)C[C@H](NC(=O)c1ccccc1)C(=O)N[C@@H](CC(=O)O)C(=O)N[C@H](C(N)=O)[C@@H](C)O (HELM PEPTIDE1{[O=C(c1ccccc1)[*:2]].L.D.T.[am]}$$$$V2.0) | 8.2 |
| CC(C)C[C@H](NC(=O)Nc1ccccc1)C(=O)N[C@@H](CC(=O)O)C(=O)N[C@H](C(N)=O)[C@@H](C)O ({NHPh-CO}-Leu-Asp-Thr-NH2) | > 25 |
